The values below come from patent US11066378B2, “Caffeic acid derivatives for anti-angiogenesis” (Taipei Medical University, priority 2015, dated 2021).

In this assay the test system is HUVECs. Description: Cell viability assay (MTT assay), growth inhibition of HUVECs. The following applies: Homo sapiens, HUVEC, 24 h, MTT assay, 24 h treatment, 5% FBS-stimulated HUVECs. The format is cell-based, human. How it is done:
Human umbilical vein endothelial cells (HUVECs; #8000) were purchased from the ScienCell Research Laboratories (San Diego, Calif., USA). The cells were seeded on gelatin-coated culture dishes and grown in the commercial endothelial cell medium (#1001; ScienCell) containing 5% fetal bovine serum (FBS; #0025; ScienCell), 30 μg/mL endothelial cell growth supplements (ECGS; #1052; ScienCell), 100 units/mL penicillin G, and 100 μg/mL streptomycin sulfates (#0503; ScienCell). Cells at passage 3-6 were used for experiments. Mouse Lewis lung carcinoma cell line 1 (LLC1; #60050) was bought from the Food Industry Research and Development Institute (Hsinchu, Taiwan) and cultured in Gibco® Dulbecco's modified Eagle's medium (#12800-017; Invitrogen, Carlsbad, Calif., USA) supplemented with 10% FBS (HyClone, Logan, Utah, USA), 4 mM L-glutamine, 1.5 g/L sodium bicarbonate, 100 units/mL penicillin G, and 100 μg/mL streptomycin. All cells were incubated in a humidified 5% CO2 atmosphere at 37° C. and culture media was changed every 2˜3 days.
The experiments were performed according to our previous study with minor modifications (Pan et al., 2010). Briefly, the cells (2×10^4 cells/well) were seeded and grown under normal culture medium for 24 h. After another 24 h of starvation with 0.5% FBS, the cells were treated with several concentrations (1, 2, 4, 8, and 16 μM) of the tested compounds for 24 h and then incubated with 5 mg/mL of MTT (3-[4,5-dimethyl thiazol-2-yl]-2,5-diphenyl tetrazolium bromide) for 2 h. After that, the cells were washed with 1×PBS and then dimethyl sulfoxide (DMSO) was added to each well. Absorbance values at 570 nm were determined for each well using 650 nm as the reference wavelength. The absorbance of the control group (treated with 5% or 10% FBS alone) was defined as 100%.
In turn, `COc1cc([C@H]2Oc3c(OC)cc(/C=C/C=O)cc3[C@@H]2C)ccc1O` [K20A] came in with a GI50 of 24 µM.

In the case of `COC(=O)/C=C/c1cc(OC)c2c(c1)[C@H](C(=O)OC)[C@@H](c1ccc(O)c(OC)c1)O2` [K20L], the concentration for 50% growth inhibition (GI50) came to 32 µM.

Turning to `COC(=O)/C=C/c1ccc(O)c(O)c1` [Methyl caffeate, reference compound], the concentration for 50% growth inhibition (GI50) came out at 80 µM.

Turning to `COC(=O)/C=C/c1cc(OC(C)=O)c2oc(-c3ccc(OC(C)=O)c(OC(C)=O)c3)c(C(=O)OC)c2c1` [K20B], halving of growth (GI50) required 24 µM.

The GI50 is the concentration giving 50% growth inhibition.
